Data published in patent publication EP0838465A1, “Pyridinium-substituted (lactamylvinyl)cephalosporin derivatives, their preparation and their use as antibiotics” (F. HOFFMANN-LA ROCHE AG, priority 1996, dated 1998).
Converted amounts (≈) assume the structure as drawn.

What was measured:
MRSA (n=17) = test: In vitro activity, MIC90 by agar dilution method in Mueller Hinton agar; format: cell-based, S. aureus; conditions: Staphylococcus aureus, agar dilution method on Mueller-Hinton agar, inoculum 10^5 CFU/spot
Description: (§1) In vitro activity was determined by minimum inhibitory concentration in a microorganism spectum by the agar dilution method in Mueller Hinton agar.
(§2) The antibacterial Spectrum appears below: • MIC : Minimum Inhibiting Concentration Values

S.aureus 42080 (MRSA) = test: In vitro activity, minimum inhibitory concentration by agar dilution method in Mueller Hinton agar; format: cell-based; conditions: Staphylococcus aureus, agar dilution method on Mueller-Hinton agar, inoculum 10^4 CFU/spot
Description: as §1, §2

S.aureus 6538 (MSSA) = test: as above; format: cell-based; conditions: Staphylococcus aureus, agar dilution method on Mueller-Hinton agar, inoculum 10^4 CFU/spot
Description: as §1, §2

Compound | MIC90 (MRSA (n=17)) [µg/mL] | MIC (S.aureus 42080 (MRSA)) [µg/mL] | MIC (S.aureus 6538 (MSSA)) [µg/mL]
Nc1nc(/C(=N/O)C(=O)N[C@@H]2C(=O)N3C(C(=O)[O-])=C(/C=C4\CCN(Cc5cc[n+](CC(=O)Nc6ccc(O)cc6)cc5)C4=O)CS[C@H]23)ns1 [B, (6R,7R)-7-[(Z)-2-(5-Amino-[1,2,4]thiadiazol-3-yl)-2-hydroxyimino-acetylamino]-3-[(E)-1-[1-[(4-hydroxy-phenylcarbamoyl)-methyl]-pyridin-1-ium-4-ylmethyl]-2-oxo-pyrrolidin-3-ylidenemethyl]-8-oxo-5-thia-1-aza-bicyclo[4.2.0]-oct-2-ene-2-carboxylate] | 4 (≈ 5.67 µM) | 4 (≈ 5.67 µM) | 0.5 (≈ 0.708 µM)
Nc1nc(/C(=N/O)C(=O)N[C@@H]2C(=O)N3C(C(=O)[O-])=C(/C=C4\CCN(Cc5cc[n+](CC(=O)Nc6ccc(O)c(F)c6)cc5)C4=O)CS[C@H]23)ns1 [D, (6R,7R)-7-[(Z)-2-(5-Amino-[1,2,4]thiadiazol-3-yl)-2-hydroxyimino-acetylamino]-3-[(E)-1-[1-[(3-fluoro-4-hydroxy-phenylcarbamoyl)-methyl]-pyridin-1-ium-4-ylmethyl]-2-oxo-pyrrolidin-3-ylidenemethyl]-8-oxo-5-thia-1-aza-bicyclo[4.2.0]oct-2-ene-2-carboxylate] | 4 (≈ 5.53 µM) | 4 (≈ 5.53 µM) | 1 (≈ 1.38 µM)
Nc1nc(/C(=N/O)C(=O)N[C@@H]2C(=O)N3C(C(=O)[O-])=C(/C=C4\CCN(Cc5cc[n+](CC(=O)Nc6ccc(O)c(F)c6)cc5)C4=O)CS[C@H]23)cs1 [C, (6R,7R)-7-[(Z)-2-(2-Amino-thiazol-4-yl)-2-hydroxyimino-acetylamino]-3-[(E)-1-[1-[(3-fluoro-4-hydroxy-phenylcarbamoyl)-methyl]-pyridin-1-ium-4-ylmethyl]-2-oxo-pyrrolidin-3-ylidenemethyl]-8-oxo-5-thia-1-aza-bicyclo[4.2.0]oct-2-ene-2-carboxylate] | 4 (≈ 5.53 µM) | 4 (≈ 5.53 µM) | 1 (≈ 1.38 µM)
Nc1nc(/C(=N/O)C(=O)N[C@@H]2C(=O)N3C(C(=O)[O-])=C(/C=C4\CCN(Cc5cc[n+](CC(=O)Nc6ccc(O)cc6)cc5)C4=O)CS[C@H]23)cs1 [A, (6R,7R)-7-[(Z)-2-(2-Amino-thiazol-4-yl)-2-hydroxyimino-acetylamino]-3-[(E)-1-[1-[(4-hydroxy-phenylcarbamoyl)-methyl]-pyridin-1-ium-4-ylmethyl]-2-oxo-pyrrolidin-3-ylidenemethyl]-8-oxo-5-thia-1-aza-bicyclo[4.2.0]oct-2-ene-2-carboxylate] | 8 (≈ 11.4 µM) | 4 (≈ 5.68 µM) | 0.5 (≈ 0.709 µM)
Nc1nc(/C(=N/O)C(=O)N[C@@H]2C(=O)N3C(C(=O)[O-])=C(/C=C4\CCN(Cc5cc[n+](CC(=O)Nc6ccc(O)c(Cl)c6)cc5)C4=O)CS[C@H]23)cs1 [E, (6R,7R)-7-[(Z)-2-(2-Amino-thiazol-4-yl)-2-hydroxyimino-acetylamino]-3-[(E)-1-[1-[(3-chloro-4-hydroxy-phenylcarbamoyl)-methyl]-pyridin-1-ium-4-ylmethyl]-2-oxo-pyrrolidin-3-ylidenemethyl]-8-oxo-5-thia-1-aza-bicyclo[4.2.0]oct-2-ene-2-carboxylate] | 8 (≈ 10.8 µM) | 4 (≈ 5.41 µM) | 0.5 (≈ 0.676 µM)

Further lines, results first:

MIC90 (MRSA (n=17)) [µg/mL] | MIC (S.aureus 42080 (MRSA)) [µg/mL] | MIC (S.aureus 6538 (MSSA)) [µg/mL] | Compound
8 (≈ 11.1 µM) | 4 (≈ 5.53 µM) | 0.5 (≈ 0.692 µM) | Nc1nc(/C(=N/O)C(=O)N[C@@H]2C(=O)N3C(C(=O)[O-])=C(/C=C4\CCN(Cc5ccc[n+](CC(=O)Nc6ccc(O)c(F)c6)c5)C4=O)CS[C@H]23)cs1 [G, (6R,7R)-7-[(Z)-2-(2-Amino-thiazol-4-yl)-2-hydroxyimino-acetylamino]-3-[(E)-1-[1-[(3-fluoro-4-hydroxy-phenylcarbamoyl)-methyl]-pyridin-1-ium-3-ylmethyl]-2-oxo-pyrrolidin-3-ylidenemethyl]-8-oxo-5-thia-1-aza-bicyclo[4.2.0]oct-2-ene-2-carboxylate]
8 (≈ 10.9 µM) | 8 (≈ 10.9 µM) | 1 (≈ 1.36 µM) | COc1cc(NC(=O)C[n+]2ccc(CN3CC/C(=C\C4=C(C(=O)[O-])N5C(=O)[C@@H](NC(=O)/C(=N\O)c6csc(N)n6)[C@H]5SC4)C3=O)cc2)ccc1O [F, (6R,7R)-7-[(Z)-2-(2-Amino-thiazol-4-yl)-2-hydroxyimino-acetylamino]-3-[(E)-1-[1-[(4-hydroxy-3-methoxy-phenylcarbamoyl)-methyl]-pyridin-1-ium-4-ylmethyl]-2-oxo-pyrrolidin-3-ylidenemethyl]-8-oxo-5-thia-1-aza-bicyclo[4.2.0]oct-2-ene-2-carboxylate]
